Test results as given in patent US7205409B2, “Pharmaceutical compositions as inhibitors of dipeptidyl peptidase-IV (DPP-IV)” (Abbott Laboratories, priority 2003, dated 2007).

Experiments:
[1] = Chemical Stability Assay (HPLC, phosphate buffer pH 7.4, 37° C.); type: physicochemical; conditions: stability to internal cyclization, read-out: chemical stability half-life (T1/2) (converted)
Experimental: For the determination of chemical stability, compounds of the present invention are assayed using the following protocol:
A solution of each DPP-IV compound was prepared in an appropriate mobile phase. This was injected and analyzed by HPLC to identify the parent drug peak in the chromatograms. Stability solutions were prepared in 50 mM phosphate buffer pH 7.4 adjusted to μ=0.155. Samples were weighed using a Mettler-Toledo microbalance and transferred into a 20 ml glass scintillation vial or a volumetric flask. The phosphate buffer pH 7.4 was added with an EDP Plus 10 ml electronic pipette. The samples were sonicated for approximately 2 minutes and filtered using a PTFE membrane syringe filter. The filtrate was transferred to amber HPLC vials and placed in an autosampler at 37° C. The first sample was immediately injected and counted as the time zero sample. The solution concentration was measured at various timepoints using an appropriate HPLC method. After data acquisition was completed, the chromatograms were processed for each compound. The rate and half-life were determined from a plot of log10 peak area remaining/peak area at zero time vs. exposure time @37° C. using Microsoft® Excel 2000. Rates of reaction and half-lives were calculated using a pseudo-first order kinetic model.

[2] = system: Insulin resistant female ZDF rats; test: acute oral glucose tolerance test (OGTT); type: in vivo, rat; conditions: OGTT 2 gm/kg four hours later
Experimental: Compounds of the present invention are evaluated for the ability to treat diabetes using an acute oral glucose tolerance test (OGTT) as follows: Insulin resistant female ZDF rats, 11 weeks of age, on a normal chow diet, are fasted overnight. A baseline tail snip blood sample is taken to measure glucose levels (Precision PCx glucose meter, Abbott Laboratories, Abbott Park, Ill.) at the beginning of the experiment. Immediately after this baseline sample, compounds of the present invention (or placebo) are dosed orally. Four hours later, a tail snip blood glucose measurement is taken, immediately followed by an oral glucose dose (OGTT, 2 gm/kg). The glucose excursion is followed for 2 hr with samples taken at 10, 20, 30, 60 and 120 min post OGTT. These timed glucose data are used to construct a glucose excursion curve, from which an area under the glucose curve (AUGC) is determined. Data are reported as the baseline-adjusted area under the glucose curve (deltaAUGC) for drug and control groups.

Structure (SMILES) | half-life [1] [h] | δ AUGC ([2]; 1.0 mg/kg oral) | δ AUGC, change versus control ([2]; 1.0 mg/kg oral) [%] | δ AUGC ([2]; 3.0 mg/kg oral) | δ AUGC, change versus control ([2]; 3.0 mg/kg oral) [%]
C[C@H]1CC[C@@H](C(=O)N2CCC[C@H]2C#N)N1 [Comparative compound α] | 5.3 | – | – | – | –
N#C[C@@H]1CCCN1C(=O)[C@@H]1CC[C@H](c2ccccc2)N1 [Comparative compound γ] | 12.2 | – | – | – | –
N#C[C@@H]1CCCN1C(=O)[C@@H]1CC[C@H](COc2ccc(C(=O)O)c3ccccc23)N1 [Example 54, (2S)-1-{(5R)-5-((4-carboxynaphthalen-1-yloxy)methyl)-L-prolyl}-pyrrolidine-2-carbonitrile] | – | 7,600 mg/mL/dL | −24 | 7,300 mg/mL/dL | −27
